Assay results: patent US5874528A, “Binding peptides which interact with ligand growth factors of the epidermal growth factor receptor and erbB-2 receptor” (Georgetown University, priority 1994, dated 1999)
One block for each substance: values may come before it. Ends that are not written are not given here.

Columns and labels:
MDA-MB-468 cells = assay: soft agar colony formation (anchorage-independent growth) of MDA-MB-468 cells; type: cell-based, human; details: 10 nM, positive control
p185^erbB-2 [1] = assay: p185^erbB-2 binding competition assay with iodinated 4D5 on SK-Br-3 cells; design: species or system human; details: 1 nM iodinated 4D5, 3 hours at 4° C., read-out: B/T 50, displacement of the binding of iodinated 4D5 to SK-Br-3
Experimental: SK-Br-3 cells were placed in 48-well plates (Costar) in 5% fetal calf serum (FCS), IMEM (Biofluids).Cells were washed and incubated for 30 minutes at 37° C. with binding buffer [1 mg/ml BSA, 10 mM Hepes, 20 mM glutamine, DMEM-F12 pH 7.4]. Binding studies were performed for 3 hours at 4° C. On SK-Br-3 cells, 1 nM iodinated 4D5 was incubated with various concentrations of P1 (.largecircle.), P2 (.circle-solid.), P3 (Δ), P4 (.tangle-solidup.), RL1 (.quadrature.), and RL2 (.box-solid.) unlabeled peptides (A), or with unlabeled 4D5 (B). After incubation, cells were washed three times with binding buffer, and solubilized with 1% SDS. Unspecific binding of iodinated 4D5 was determined with an excess (100 nM) of unlabeled 4D5. Each group was assayed in triplicate. Experiments were performed three times with similar results.
To explore whether the RL2 peptide could specifically represent either a p185^erbB-2 or EGFR-extracellular binding site, we tested the aforementioned peptides in p185^erbB-2 or EGFR binding competition assays. Since iodinated gp30 was not available, p185^erbB-2 and EGFR competition assays were performed using iodinated monoclonal antibody 4D5 and iodinated EGF respectively. p185^erbB-2 monoclonal antibodies 4D5 and 7C2 were provided by Genentech, Inc., South San Francisco, Calif. […]

EGFR [2] = assay: EGFR binding competition assay with iodinated EGF in MDA-MB-468 cells; design: species or system human; details: 1 nM iodinated EGF, peptide 0.6, 6, 60 μM
Experimental: FIG. 6A: EGFR binding competition assays were performed in MDA-MB-468 cells. In brief, 150,000 cells/well were plated in 24 well plate. The binding assays were performed as described by Lonardo, et al., Mol. Cell. Biol, 2:992 (1990). In brief, 1 nM iodinated EGF (Amersham) was incubated with increasing concentrations of RL2 or RL2-K (0.6, 6, 60 μM, respectively). Increasing concentrations of unlabelled EGF were used as control, as shown in the insert. Each group was assayed in triplicate. Values are from three experiments and expressed as the mean percent of control cases.
To explore whether the RL2 peptide could specifically represent either a p185^erbB-2 or EGFR-extracellular binding site, we tested the aforementioned peptides in p185^erbB-2 or EGFR binding competition assays. Since iodinated gp30 was not available, p185^erbB-2 and EGFR competition assays were performed using iodinated monoclonal antibody 4D5 and iodinated EGF respectively. p185^erbB-2 monoclonal antibodies 4D5 and 7C2 were provided by Genentech, Inc., South San Francisco, Calif.
Among the peptides tested, only RL2 displaced in a dose-dependent manner (B/T 50: 8 μM) the binding of iodinated 4D5 to SK-Br-3 (FIG. 2).

monoclonal antibody 4D5 = assay: binding of iodinated RL2 to a 4D5 affinity column
Experimental: First, RL2 peptide was iodinated using Iodogen, and purified with high-pressure liquid chromatography (HPLC); the specific activity was 26,000 cpm/μg peptide. […] 3×10^6 cpm of iodinated RL2 were loaded onto a protein A-sepharose column coupled with 4D5 (coupling percentage: 98.5%). Elutions were performed with increasing concentrations of MgCl2 from 1 to 5M (see Table 1). The specific elution marked as * on Table I was obtained at 2M MgCl2. The flow-through contained only background levels of radioactivity.

p185^erbB-2 [3] = assay: in vitro tyrosine phosphorylation assay in MDA-MB-453 cells; type: cell-based, human; details: 0.06 to 60 μM, gp30 50 pM
Experimental: Cells were grown in 24-well plates (Costar) to 70% confluence in 5% FCS IMEM and serum-starved 24 hours prior to assays. Cells were then treated for 20 minutes at 37° C. with RL1 or RL2 with and without gp30 (at concentrations given below), as indicated on Figure panels, washed once with serum-free IMEM, and lysed at 4° C. for 10 minutes with a lysis buffer containing SDS (Emprotech). Total cellular proteins were subjected to 4-20% SDS-PAGE, and blotted onto Hybond-ECL membranes (Amersham). Membranes were blocked with tris-buffered saline [5% BSA, 0.5% Tween 20] and probed with 1 μg/ml phosphotyrosine monoclonal antibody (UBI) in tris-buffered saline [0.5% BSA, 0.5% Tween 20]. Immune complexes were detected using the ECL-western blotting kit (Amersham) as indicated by the manufacturer. […] The values obtained were corrected for background and expressed as control percentages. […]
(§1) To further characterize RL2 blocking effects, we analyzed the homologous peptides for their ability to prevent the tyrosine phosphorylation induced by gp30 either in p185^erbB-2 or EGFR, or both of them. […] (Densitometric analyses of autoradiograms were performed using a SAMBA 4000 system (Dynatech Laboratories). The values obtained were corrected for background and expressed as control percentages. Differences were considered significant when effects more than 10% versus controls occurred.)

EGFR [4] = assay: in vitro tyrosine phosphorylation assay in MDA-MB-468 cells; type: cell-based, human
Experimental: Cells were grown in 24-well plates (Costar) to 70% confluence in 5% FCS IMEM and serum-starved 24 hours prior to assays. Cells were then treated for 20 minutes at 37° C. with RL1 or RL2 with and without gp30 (at concentrations given below), as indicated on Figure panels, washed once with serum-free IMEM, and lysed at 4° C. for 10 minutes with a lysis buffer containing SDS (Emprotech). Total cellular proteins were subjected to 4-20% SDS-PAGE, and blotted onto Hybond-ECL membranes (Amersham). Membranes were blocked with tris-buffered saline [5% BSA, 0.5% Tween 20] and probed with 1 μg/ml phosphotyrosine monoclonal antibody (UBI) in tris-buffered saline [0.5% BSA, 0.5% Tween 20]. Immune complexes were detected using the ECL-western blotting kit (Amersham) as indicated by the manufacturer. Densitometric analyses were performed using a SAMBA 4000 system (Dynatech Laboratories). The values obtained were corrected for background and expressed as control percentages. Differences were considered significant when effects more than 10% versus controls occurred.
Upper panels correspond to MDA-MB-453 cells. […] Lower panels correspond to MDA-MB-468 cells. […] Lanes 1 to 4 correspond to increasing concentrations of RL2 (left panels), or RL1 (right panels) peptides. 1: 0.06 μM; 2: 0.6 μM; 3: 6 μM; 4: 60 μM. Experiments were repeated four times with similar results.
FIG. 6B: EGFR Tyrosine Phosphorylation assays were performed using MDA-MB-468 cells, as described for FIG. 3. […]
as §1

p185^erbB-2 [5] = assay: in vivo phosphorylation assay and phosphoaminoacid analysis in MDA-MB-453 cells; type: cell-based, human
Experimental: MDA-MB-453 cells were grown in 35 mm dishes (Costar) to 70% confluence in 5% FCS IMEM. Cells were washed twice with PO4 free DMEM (Gibco), and then incubated for 3 hours at 37° C. with [^32 P]-orthophosphate (Amersham; 1.0 mCi/ml in each dish). Cells were then treated for 10 minutes at 37° C. with samples: control, 60 μM RL2, 50×10^-12 M gp30, or 50×10^-12 M gp30 plus 60 μM RL2. All samples were preincubated 30 minutes at 37° C. Cells were washed twice with PBS, and lysed at 4° C. for 10 minutes with a lysis buffer containing 1% Triton X-100, and kinase, protease and phosphatase inhibitors as described (Frackelton, et al., J. Biol. Chem., 259:7909 (1984)). After centrifugation at 10,000× g for 15 minutes at 4° C., tyrosinephosphorylated proteins were isolated from supernatants by microbath affinity chromatography on the phosphotyrosine monoclonal antibody 1G2 (provided by Dr. A. R. Frakelton) as previously described (Frackelton, et al., J. Biol Chem., 259:7909 (1984); and Beitz, et al., Proc. Natl. Acad. Sci. USA, 88:2021 (1991)), eluted with 1 mM phenylphosphate in PBS pH 7.4, and purified further by immunoprecipitation with p185^erbB-2 monoclonal antibody Ab-3 (Oncogene Science) adsorbed on protein A-Sepharose. […]

MDA-MB-453 cells = assay: soft agar colony formation (anchorage-independent growth) of MDA-MB-453 cells; type: cell-based, human; details: for Number of Colonies (± SD): MDA-MB 453 cells, untreated 942 ± 120
Experimental: (§2) MDA-MB-453 (A), or SK-Br-3 cells (B) were plated in 35 mm tissue culture dishes (Costar). A bottom layer of 1 ml IMEM containing 0.6% Bacto-agar (Difco), 2 mM glutamine, and 10% FCS was prepared. Top layers contained 2×10^4 cells and samples in 0.4% Bacto-agar, 10% FCS IMEM. Samples were sterilized prior to plating by filtration using 0.22 μM Millex CU millipore filter. The legend of peptide symbols in A is identical to the one in FIG. 2. The following concentrations were used in B: 5×10^-12 M gp30, 2×10^-12 M p75, 60 μM RL2, and 127 nM p185^erbB-2 extracellular domain (ECD) as positive control. Experiments were carried out in FCS that had been tested for optimal cloning efficiency. Cells were incubated 7-9 days in humidified 5% CO2 atmosphere at 37° C. Colonies larger than 60-μm were counted using a Baush and Lomb Stem Cell Colony Counter (Artex Systems Corp.). Each group was assayed in triplicate. Experiments were performed three times.
*Cells were treated as indicated. The monoclonal antibody 4D5 (kindly
provided by Genentech, CA) and the RL2 peptide were used as positive
controls. Soft agar cloning assays were carried out as previously
described (Lupu, et al., Proc. Natl. Acad. Sci. USA, 87:2287-91, 1992).
Colonies larger than 69 μM were counted using a Baush & Lomb Stem Cell
Colony Counter (Artex Systems Corp.). Each group was assayed in
triplicate. Experiments were performed three times with similar results.

SK-Br-3 cells = assay: soft agar colony formation of SK-Br-3 cells with gp30 or p75; type: cell-based, human; details: 5×10^-12 M gp30 or 2×10^-12 M p75; 60 μM RL2, 127 nM ECD
Experimental: as §2
To illustrate RL2 antiproliferative effects as a blocking action on the p185^erbB-2 ligand-mediated effects, we tested this peptide and the ECD of p185^erbB-2 on the anchorage-independent growth of SK-Br-3 cells in the presence of stimulating concentrations of either gp30 or p75 proteins, the latter known to interact exclusively with p185^erbB-2 (Lupu, et al., Proc. Natl. Acad. Sci. USA, 89:2287-91 (1992)). […]

Substance: EGF: epidermal growth factor, positive control
response of MDA-MB-468 cell anchorage-independent growth (MDA-MB-468 cells): did respond

IC50 (p185^erbB-2 [1]): 8 µM | radioactivity, flow through (monoclonal antibody 4D5; input 3 × 10^6 cpm iodinated RL2, flow through): 2.6 × 10^5 cpm | radioactivity, wash (monoclonal antibody 4D5; input 3 × 10^6 cpm iodinated RL2, wash): 2.54 × 10^5 cpm
Substance: LGLRSLRE [RL2]
effect on binding of iodinated EGF to the EGFR (EGFR [2]): absence of an effect | binding of iodinated peptide to 4D5-affinity column (monoclonal antibody 4D5; protein A-sepharose column coupled with 4D5): specifically bind to a 4D5-affinity column | inhibition of gp30-stimulated level of p185^erbB-2 tyrosine phosphorylation (p185^erbB-2 [3]): 80% | inhibition of gp30-stimulated level of EGFR tyrosine phosphorylation (EGFR [4]; 60 μM, gp30 50 pM): not the gp30-stimulated level | inhibition of baseline level of EGFR tyrosine phosphorylation (EGFR [4]; 60 μM, no gp30): 71% | effect on EGF-induced tyrosine phosphorylation of EGFR (EGFR [4]; EGF 1.68 nM, peptide 0.6, 6 and 60 μM): no effect | decrease of p185^erbB-2 tyrosine level of phosphorylation, presence of gp30-stimulation (p185^erbB-2 [5]; 60 μM RL2, 50×10^-12 M gp30): 26% | decrease of p185^erbB-2 tyrosine level of phosphorylation, absence of gp30-stimulation (p185^erbB-2 [5]; 60 μM RL2, [32P]-orthophosphate labelling): 50% | inhibition of MDA-MB-453 cell anchorage-independent growth (MDA-MB-453 cells; 6-60 μM): 72% | Number of Colonies (± SD) (MDA-MB-453 cells; 6 μM): 245 ± 46 | Number of Colonies (± SD) (MDA-MB-453 cells; 60 μM): 123 ± 21 | inhibiting effects on anchorage-independent growth of SK-Br-3 cells in presence of gp30 or p75 (SK-Br-3 cells): fully reversed

Substance: p185^erbB-2 ECD: p185^erbB-2 extracellular domain (ECD), positive control
inhibiting effects on anchorage-independent growth of SK-Br-3 cells in presence of gp30 or p75 (SK-Br-3 cells): fully reversed
